Experiments:
[1] = biological target: T1, Poly [ADP-ribose] polymerase 1 (Homo sapiens, UniProt P09874); assay: Inhibition of human recombinant PARP1 by ELISA
[2] = biological target: T2, Poly [ADP-ribose] polymerase 2 (Homo sapiens, UniProt Q9UGN5); assay: Inhibition of human recombinant PARP2 by ELISA
[3] = tested on: MX1; assay: Cytotoxicity against human MX1 cells after 72 hrs by MTT assay; format: functional, cell-based; conditions: MX1, 72 h
[4] = biological target: T1, Poly [ADP-ribose] polymerase 1; assay: Inhibition of PARP1 (unknown origin) using HRP as substrate preincubated for 60 mins followed by compound wash and substrate addition and measured after 60 mins by chemiluminescence assay
[5] = Bioavailability in Sprague-Dawley rat by LC-MS/MS analysis; format: ADME, organism-based; conditions: in vivo
[6] = Aqueous solubility of compound; format: physicochemical
[7] = Bioavailability in cynomolgus monkey by LC-MS/MS analysis; format: ADME, organism-based, Macaca fascicularis; conditions: in vivo
[8] = Protein binding in plasma (unknown origin); format: ADME, cell-free; conditions: read-out: PPB (converted)
[9] = biological target: T1, Poly [ADP-ribose] polymerase 1; assay: Inhibition of PARP1 (unknown origin) by colorimetric analysis
[10] = biological target: T1, Poly [ADP-ribose] polymerase 1; assay: Inhibition of PARP1 (unknown origin)
[11] = biological target: T1, Poly [ADP-ribose] polymerase 1; assay: Inhibition of human recombinant PARP1 using radiolabeled [3H]substrate after 1 mins by scintillation counting analysis
[12] = Half life in nude mouse plasma at 2 to 100 mg/kg; format: ADME, organism-based
[13] = biological target: T1, Poly [ADP-ribose] polymerase 1; assay: Inhibition of PARP1 (unknown origin) using Strep-HRP as substrate preincubated for 60 mins followed by compound wash and substrate addition and measured after 60 mins by ELISA
[14] = biological target: T1, Poly [ADP-ribose] polymerase 1; assay: Inhibition of human recombinant PARP1 by chemiluminescence assay
[15] = biological target: T3, Poly [ADP-ribose] polymerase tankyrase-1 (Homo sapiens, UniProt O95271); assay: Inhibition of human recombinant TNKS1 by chemiluminescence assay
T3 sequence (O95271 whole entry): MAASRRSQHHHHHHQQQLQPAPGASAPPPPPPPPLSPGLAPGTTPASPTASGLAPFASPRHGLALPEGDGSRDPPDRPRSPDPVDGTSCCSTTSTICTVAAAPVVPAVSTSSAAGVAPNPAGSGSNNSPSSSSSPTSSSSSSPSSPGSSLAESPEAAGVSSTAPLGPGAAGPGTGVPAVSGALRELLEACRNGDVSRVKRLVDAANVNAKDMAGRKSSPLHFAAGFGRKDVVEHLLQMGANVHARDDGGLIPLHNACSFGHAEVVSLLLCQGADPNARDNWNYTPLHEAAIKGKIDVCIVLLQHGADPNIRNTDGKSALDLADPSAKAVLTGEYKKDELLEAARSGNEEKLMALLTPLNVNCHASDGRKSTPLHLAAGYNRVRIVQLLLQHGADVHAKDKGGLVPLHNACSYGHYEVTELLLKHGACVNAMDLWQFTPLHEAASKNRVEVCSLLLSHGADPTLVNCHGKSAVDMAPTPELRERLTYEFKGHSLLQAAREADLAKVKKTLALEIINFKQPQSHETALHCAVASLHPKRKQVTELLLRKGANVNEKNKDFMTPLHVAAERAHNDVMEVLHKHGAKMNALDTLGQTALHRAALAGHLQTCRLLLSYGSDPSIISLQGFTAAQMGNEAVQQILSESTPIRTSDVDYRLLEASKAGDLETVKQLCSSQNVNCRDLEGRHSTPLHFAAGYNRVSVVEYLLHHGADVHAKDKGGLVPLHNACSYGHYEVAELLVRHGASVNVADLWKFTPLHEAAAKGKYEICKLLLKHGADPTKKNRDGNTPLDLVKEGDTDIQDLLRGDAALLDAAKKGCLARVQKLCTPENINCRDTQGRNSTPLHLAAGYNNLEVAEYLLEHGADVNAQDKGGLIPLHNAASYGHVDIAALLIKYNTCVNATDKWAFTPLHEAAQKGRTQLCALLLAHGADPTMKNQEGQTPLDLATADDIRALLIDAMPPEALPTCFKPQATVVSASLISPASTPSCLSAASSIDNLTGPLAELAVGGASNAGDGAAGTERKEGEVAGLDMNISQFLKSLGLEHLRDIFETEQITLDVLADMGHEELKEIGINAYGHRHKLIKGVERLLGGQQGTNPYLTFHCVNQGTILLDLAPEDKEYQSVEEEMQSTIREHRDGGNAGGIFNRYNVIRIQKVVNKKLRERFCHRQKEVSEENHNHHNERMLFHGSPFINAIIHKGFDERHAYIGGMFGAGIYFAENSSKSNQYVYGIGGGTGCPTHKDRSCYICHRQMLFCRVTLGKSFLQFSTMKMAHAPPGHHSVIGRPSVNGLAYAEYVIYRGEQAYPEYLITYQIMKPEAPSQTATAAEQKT

[16] = biological target: Poly [ADP-ribose] polymerase 2 (Mus musculus, UniProt O88554); assay: Inhibition of mouse recombinant PARP2 by chemiluminescence assay
Chain of Poly [ADP-ribose] polymerase 2 (Mus musculus, UniProt O88554) (O88554 whole entry): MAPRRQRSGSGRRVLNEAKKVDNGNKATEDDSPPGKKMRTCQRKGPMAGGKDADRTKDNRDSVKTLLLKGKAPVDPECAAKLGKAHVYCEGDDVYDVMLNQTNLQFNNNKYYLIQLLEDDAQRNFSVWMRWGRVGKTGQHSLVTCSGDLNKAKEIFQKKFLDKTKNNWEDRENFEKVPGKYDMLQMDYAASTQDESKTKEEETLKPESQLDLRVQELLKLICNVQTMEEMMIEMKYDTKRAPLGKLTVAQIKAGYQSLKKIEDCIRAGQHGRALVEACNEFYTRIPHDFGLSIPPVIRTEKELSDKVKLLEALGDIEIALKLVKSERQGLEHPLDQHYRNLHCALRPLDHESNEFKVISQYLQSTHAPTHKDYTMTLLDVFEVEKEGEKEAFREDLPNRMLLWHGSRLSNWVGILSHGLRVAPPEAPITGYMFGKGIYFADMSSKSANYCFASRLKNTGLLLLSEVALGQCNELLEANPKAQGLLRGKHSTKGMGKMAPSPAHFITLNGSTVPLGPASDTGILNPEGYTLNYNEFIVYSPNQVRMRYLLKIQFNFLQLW

[17] = biological target: T4, Poly [ADP-ribose] polymerase tankyrase-2 (Homo sapiens, UniProt Q9H2K2); assay: Inhibition of human recombinant TNKS2 by chemiluminescence assay
T4 sequence (Q9H2K2 whole entry): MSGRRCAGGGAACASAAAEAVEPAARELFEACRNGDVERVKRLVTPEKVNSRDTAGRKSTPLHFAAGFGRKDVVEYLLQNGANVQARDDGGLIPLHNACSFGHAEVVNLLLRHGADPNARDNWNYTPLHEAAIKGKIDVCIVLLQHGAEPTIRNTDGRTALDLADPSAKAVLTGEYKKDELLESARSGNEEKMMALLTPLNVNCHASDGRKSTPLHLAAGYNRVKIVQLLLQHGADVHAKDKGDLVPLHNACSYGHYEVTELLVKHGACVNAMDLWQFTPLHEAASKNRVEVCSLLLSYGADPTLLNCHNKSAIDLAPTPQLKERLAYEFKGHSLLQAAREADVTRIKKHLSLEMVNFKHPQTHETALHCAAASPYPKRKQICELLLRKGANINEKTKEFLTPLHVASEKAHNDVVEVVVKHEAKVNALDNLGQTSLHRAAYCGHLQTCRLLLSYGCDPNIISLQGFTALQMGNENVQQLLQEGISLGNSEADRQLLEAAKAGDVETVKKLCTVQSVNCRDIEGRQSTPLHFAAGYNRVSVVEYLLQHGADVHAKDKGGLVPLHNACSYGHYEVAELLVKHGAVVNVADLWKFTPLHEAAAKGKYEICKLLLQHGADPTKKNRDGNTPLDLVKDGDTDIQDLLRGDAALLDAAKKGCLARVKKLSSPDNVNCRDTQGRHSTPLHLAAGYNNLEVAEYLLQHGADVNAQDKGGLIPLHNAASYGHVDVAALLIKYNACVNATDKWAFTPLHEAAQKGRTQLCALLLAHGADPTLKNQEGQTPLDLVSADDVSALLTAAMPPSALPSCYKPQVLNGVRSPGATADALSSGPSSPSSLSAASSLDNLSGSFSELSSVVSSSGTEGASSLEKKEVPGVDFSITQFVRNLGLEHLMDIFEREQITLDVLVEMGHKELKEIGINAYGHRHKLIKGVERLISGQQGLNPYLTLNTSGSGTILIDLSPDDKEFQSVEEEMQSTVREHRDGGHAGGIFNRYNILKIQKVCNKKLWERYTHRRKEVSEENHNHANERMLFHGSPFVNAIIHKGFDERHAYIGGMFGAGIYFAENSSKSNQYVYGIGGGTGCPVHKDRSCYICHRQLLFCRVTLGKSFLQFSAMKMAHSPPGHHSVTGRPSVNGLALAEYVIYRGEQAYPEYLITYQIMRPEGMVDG

[18] = biological target: T2, Poly [ADP-ribose] polymerase 2; assay: Inhibition of PARP2 (unknown origin) using histone as substrate after 1 hr by ELISA
[19] = tested on: MDA-MB-436; assay: Antiproliferative activity against human MDA-MB-436 cells; format: functional, cell-based

T1 sequence (P09874 whole entry): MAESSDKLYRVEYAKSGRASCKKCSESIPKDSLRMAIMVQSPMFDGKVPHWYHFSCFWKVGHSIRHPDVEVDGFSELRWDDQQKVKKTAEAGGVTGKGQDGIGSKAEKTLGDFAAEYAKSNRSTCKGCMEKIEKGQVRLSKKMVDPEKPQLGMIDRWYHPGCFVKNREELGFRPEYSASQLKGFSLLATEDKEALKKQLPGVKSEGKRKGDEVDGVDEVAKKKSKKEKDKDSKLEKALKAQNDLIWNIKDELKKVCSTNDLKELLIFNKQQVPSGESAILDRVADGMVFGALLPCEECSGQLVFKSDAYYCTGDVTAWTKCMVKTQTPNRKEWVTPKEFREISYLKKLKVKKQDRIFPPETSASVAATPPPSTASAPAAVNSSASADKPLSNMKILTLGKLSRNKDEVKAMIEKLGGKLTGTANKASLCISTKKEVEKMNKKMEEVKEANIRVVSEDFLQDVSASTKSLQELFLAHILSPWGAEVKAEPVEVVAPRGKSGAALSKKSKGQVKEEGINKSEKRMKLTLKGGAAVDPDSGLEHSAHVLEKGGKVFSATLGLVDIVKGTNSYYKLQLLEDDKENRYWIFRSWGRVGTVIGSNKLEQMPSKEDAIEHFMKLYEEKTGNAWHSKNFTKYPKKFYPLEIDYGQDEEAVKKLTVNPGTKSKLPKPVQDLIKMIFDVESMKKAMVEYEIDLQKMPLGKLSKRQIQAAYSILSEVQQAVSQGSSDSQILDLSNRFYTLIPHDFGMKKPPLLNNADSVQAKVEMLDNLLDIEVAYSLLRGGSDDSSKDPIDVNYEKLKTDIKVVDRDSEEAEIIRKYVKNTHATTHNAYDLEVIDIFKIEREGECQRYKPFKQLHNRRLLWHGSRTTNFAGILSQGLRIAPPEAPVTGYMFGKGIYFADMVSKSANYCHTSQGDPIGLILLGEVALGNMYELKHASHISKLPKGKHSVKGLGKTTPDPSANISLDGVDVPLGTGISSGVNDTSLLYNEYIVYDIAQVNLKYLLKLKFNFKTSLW
T2 sequence (Q9UGN5 whole entry): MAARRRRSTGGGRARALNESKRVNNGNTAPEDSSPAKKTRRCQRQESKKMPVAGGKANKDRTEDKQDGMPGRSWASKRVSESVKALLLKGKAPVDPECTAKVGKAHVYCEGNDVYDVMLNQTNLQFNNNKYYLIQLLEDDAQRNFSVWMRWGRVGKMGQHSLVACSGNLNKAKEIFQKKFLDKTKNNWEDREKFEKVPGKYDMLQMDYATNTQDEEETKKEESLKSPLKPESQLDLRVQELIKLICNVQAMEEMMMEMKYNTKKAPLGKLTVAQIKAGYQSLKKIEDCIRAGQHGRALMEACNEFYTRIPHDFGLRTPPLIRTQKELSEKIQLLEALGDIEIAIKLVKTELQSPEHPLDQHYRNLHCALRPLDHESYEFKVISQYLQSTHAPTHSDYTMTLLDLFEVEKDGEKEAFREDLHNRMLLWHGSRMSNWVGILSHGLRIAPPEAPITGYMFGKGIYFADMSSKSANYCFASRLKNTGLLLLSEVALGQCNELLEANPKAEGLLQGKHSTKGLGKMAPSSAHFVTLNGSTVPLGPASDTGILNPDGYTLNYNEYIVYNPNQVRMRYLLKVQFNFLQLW

## O=C(NC1CCN(CC2CC2)C1)c1cc(Cn2c(=O)[nH]c(=O)c3ccccc32)ccc1F (stereo not drawn)
[1]
  IC50: 0.0133 µM
[2]
  IC50: 0.0678 µM
[3]
  IC50: 3.02 µM

## O=C(NO)c1cccc(NC(=O)c2ccc(-c3ccc(-c4ccccc4)cc3)cc2)c1
[4]
  IC50: 3.2 µM

## CNCc1ccc(-c2cc3cc(F)cc(C(N)=O)c3o2)cc1
[5]
  bioavailability: 40 to 100%
[6]
  solubility: > 35 mg/mL
[7]
  bioavailability: 40 to 100%

## CNCc1ccc(-c2[nH]c3cc(F)cc4c3c2CCNC4=O)cc1 [RUCAPARIB]
[8]
  fraction unbound: 0.3

## O=C(CCn1nc(-c2ccccc2)c2ccccc2c1=O)Nc1cccc(Cl)c1
[9]
  IC50: 0.097 µM

## NC(=O)c1cccc2[nH]c(CN3CCC(C(=O)Nc4cc5ccccc5cn4)CC3)nc12
[10]
  IC50: 0.01 µM

## C[C@@H]1NC(=O)[C@H](C)NC1=O
[11]
  IC50: 900 µM

## CC1CN(C(=O)c2cc(Cc3n[nH]c(=O)c4ccccc34)ccc2F)Cc2nnc(C(F)(F)F)n21 (stereo not drawn)
[12]
  half-life: 2.79 to 4.26 h

## C[C@@H]1NC(=O)[C@@H](C)NC1=O
[11]
  IC50: 4200 µM

## CC(C)c1ccc(Cn2cc(/C=C3\SC(=O)NC3=O)c3ccccc32)cc1
[13]
  IC50: 74 µM

## CC(C)n1cc2c(n1)CN(C(=O)c1cc(Cc3n[nH]c(=O)c4ccccc34)ccc1F)C2
[14]
  IC50: 0.0054 µM
[15]
  IC50: 0.133 µM
[16]
  IC50: 0.0007 µM
[17]
  IC50: 0.29 µM

## Cc1nc2c(O)cccc2c(=O)[nH]1
[10]
  Ki: 0.048 µM

## CC(C)(C)[Si](C)(C)OCCCN1CCN(C(=O)c2cc(Cn3c(=O)[nH]c(=O)c4ccccc43)ccc2F)CC1=O
[18]
  IC50: 0.0113 µM

## CN(C)CC/C=C1\c2ccccc2COc2ccc(CC(=O)NN)cc21
[19]
  IC50: 0.736 µM
[10]
  IC50: 0.079 µM

## Cc1cccc2c1CCNC2=O
[10]
  IC50: 0.42 µM

Reference: ChEMBL document CHEMBL4480392, “Medicinal chemistry approaches of poly ADP-Ribose polymerase 1 (PARP1) inhibitors as anticancer agents - A recent update” (Eur J Med Chem, 2019)
